Experimental data: the NIST ThermoML archive (doi:10.1007/s10765-016-2109-2)

Assays:
[1] = Liquid, isochoric method
[2] = molar heat capacity at constant volume; settings: Liquid, Vacuum adiabatic calorimetry

CCCCCC[n+]1ccn(C)c1.O=S(=O)([N-]S(=O)(=O)C(F)(F)F)C(F)(F)F
[1]
Settings | mass density [kg/m3]
325.26 K | 1344.14
350.36 K | 1323.92

[2]
Settings | molar heat capacity at constant volume [J/K/mol]
325.26 K, Mass density=1344.14 kg/m3 | 609.39
325.39 K, Mass density=1344.14 kg/m3 | 608.49
325.51 K, Mass density=1344.14 kg/m3 | 608.94
325.63 K, Mass density=1344.14 kg/m3 | 608.49
325.75 K, Mass density=1344.14 kg/m3 | 609.83
325.88 K, Mass density=1344.14 kg/m3 | 608.94
326 K, Mass density=1344.14 kg/m3 | 608.04
326.13 K, Mass density=1344.14 kg/m3 | 606.7
326.26 K, Mass density=1344.14 kg/m3 | 608.49
328.58 K, Mass density=1344.14 kg/m3 | 609.83
328.7 K, Mass density=1344.14 kg/m3 | 608.49
328.82 K, Mass density=1344.14 kg/m3 | 607.6
328.94 K, Mass density=1344.14 kg/m3 | 606.25
329.07 K, Mass density=1344.14 kg/m3 | 607.15
329.19 K, Mass density=1344.14 kg/m3 | 609.39
329.31 K, Mass density=1344.14 kg/m3 | 609.83
329.43 K, Mass density=1344.14 kg/m3 | 605.36
333.09 K, Mass density=1344.14 kg/m3 | 612.07
333.21 K, Mass density=1344.14 kg/m3 | 606.25
333.33 K, Mass density=1344.14 kg/m3 | 609.39
333.45 K, Mass density=1344.14 kg/m3 | 613.86
333.57 K, Mass density=1344.14 kg/m3 | 607.6
333.7 K, Mass density=1344.14 kg/m3 | 610.73
333.82 K, Mass density=1344.14 kg/m3 | 613.41
333.94 K, Mass density=1344.14 kg/m3 | 609.83
341.28 K, Mass density=1344.14 kg/m3 | 615.2
341.4 K, Mass density=1344.14 kg/m3 | 610.73
341.52 K, Mass density=1344.14 kg/m3 | 617.44
341.64 K, Mass density=1344.14 kg/m3 | 612.96
341.76 K, Mass density=1344.14 kg/m3 | 620.12
341.88 K, Mass density=1344.14 kg/m3 | 615.65
342 K, Mass density=1344.14 kg/m3 | 614.75
342.12 K, Mass density=1344.14 kg/m3 | 618.78
348.64 K, Mass density=1344.14 kg/m3 | 619.23
348.76 K, Mass density=1344.14 kg/m3 | 617.89
348.88 K, Mass density=1344.14 kg/m3 | 621.91
348.99 K, Mass density=1344.14 kg/m3 | 620.12
349.11 K, Mass density=1344.14 kg/m3 | 618.78
349.23 K, Mass density=1344.14 kg/m3 | 623.7
349.35 K, Mass density=1344.14 kg/m3 | 617.44
349.47 K, Mass density=1344.14 kg/m3 | 622.81
349.58 K, Mass density=1344.14 kg/m3 | 619.68
350.36 K, Mass density=1323.92 kg/m3 | 625.05
350.41 K, Mass density=1323.92 kg/m3 | 624.15
350.53 K, Mass density=1323.92 kg/m3 | 623.26
350.64 K, Mass density=1323.92 kg/m3 | 622.36
350.76 K, Mass density=1323.92 kg/m3 | 625.49
350.88 K, Mass density=1323.92 kg/m3 | 624.6
350.99 K, Mass density=1323.92 kg/m3 | 621.02
351.11 K, Mass density=1323.92 kg/m3 | 621.91
351.23 K, Mass density=1323.92 kg/m3 | 623.26
351.35 K, Mass density=1323.92 kg/m3 | 620.12
351.46 K, Mass density=1323.92 kg/m3 | 621.02
351.58 K, Mass density=1323.92 kg/m3 | 622.36
351.7 K, Mass density=1323.92 kg/m3 | 620.57
351.82 K, Mass density=1323.92 kg/m3 | 621.47
351.93 K, Mass density=1323.92 kg/m3 | 619.68
352.03 K, Mass density=1323.92 kg/m3 | 621.47
360.03 K, Mass density=1323.92 kg/m3 | 626.39
360.19 K, Mass density=1323.92 kg/m3 | 624.15
360.3 K, Mass density=1323.92 kg/m3 | 628.18
360.42 K, Mass density=1323.92 kg/m3 | 622.81
360.53 K, Mass density=1323.92 kg/m3 | 625.05
360.65 K, Mass density=1323.92 kg/m3 | 622.36
360.76 K, Mass density=1323.92 kg/m3 | 623.26
360.88 K, Mass density=1323.92 kg/m3 | 621.02
360.99 K, Mass density=1323.92 kg/m3 | 621.47
361.11 K, Mass density=1323.92 kg/m3 | 622.81
361.22 K, Mass density=1323.92 kg/m3 | 620.57
361.34 K, Mass density=1323.92 kg/m3 | 627.28
365.26 K, Mass density=1323.92 kg/m3 | 624.15
365.35 K, Mass density=1323.92 kg/m3 | 629.52
365.47 K, Mass density=1323.92 kg/m3 | 627.28
365.58 K, Mass density=1323.92 kg/m3 | 625.49
365.69 K, Mass density=1323.92 kg/m3 | 632.65
365.81 K, Mass density=1323.92 kg/m3 | 622.36
365.92 K, Mass density=1323.92 kg/m3 | 629.07
366.04 K, Mass density=1323.92 kg/m3 | 627.28
366.15 K, Mass density=1323.92 kg/m3 | 630.41
366.27 K, Mass density=1323.92 kg/m3 | 623.7
366.38 K, Mass density=1323.92 kg/m3 | 629.97
372.87 K, Mass density=1323.92 kg/m3 | 635.78
372.96 K, Mass density=1323.92 kg/m3 | 634.44
373.07 K, Mass density=1323.92 kg/m3 | 631.76
373.18 K, Mass density=1323.92 kg/m3 | 633.1
373.29 K, Mass density=1323.92 kg/m3 | 636.68
373.41 K, Mass density=1323.92 kg/m3 | 629.07
373.52 K, Mass density=1323.92 kg/m3 | 634.89
373.63 K, Mass density=1323.92 kg/m3 | 629.97
373.74 K, Mass density=1323.92 kg/m3 | 631.31
373.86 K, Mass density=1323.92 kg/m3 | 638.02
373.97 K, Mass density=1323.92 kg/m3 | 636.68
374.08 K, Mass density=1323.92 kg/m3 | 638.92
